In the Deep4Chem optical property database:
Blank lines part the entries; values can stand above or below the compound they belong to.

Experiment: solvent given as SMILES

absorption maximum (in ClCCl): 422 nm
SMILES: CCCCOc1c(-c2ccc(N(c3ccccc3)c3ccccc3)cc2)cc2cc(-c3ccc(N(c4ccccc4)c4ccccc4)cc3)c(OCCCC)c3c4c(OCCCC)c(-c5ccc(N(c6ccccc6)c6ccccc6)cc5)cc5cc(-c6ccc(N(c7ccccc7)c7ccccc7)cc6)c(OCCCC)c(c1c23)c54

SMILES: CCN1/C(=C\c2c(-c3ccc(N(C)C)cc3)c(=O)c2=O)C=Cc2ccccc21
absorption maximum (in C1CCCCC1): 359 nm
absorption maximum (in Cc1ccccc1): 362 nm
absorption maximum (in ClCCl): 509 nm

SMILES: CC(C)[Si]1(C(C)C)c2cc(C#N)ccc2-c2ccc(N(C)C)cc21
absorption maximum (in C1CCCCC1): 357 nm
absorption maximum (in CC#N): 360 nm
absorption maximum (in CCO): 360 nm
absorption maximum (in CCOCC): 358 nm
absorption maximum (in CS(C)=O): 375 nm
absorption maximum (in ClCCl): 368 nm
absorption maximum (in c1ccccc1): 360 nm

absorption maximum (in CS(C)=O): 462 nm
absorption maximum (in ClCCl): 458 nm
SMILES: CCN(CC)c1ccc2c(c1)oc(=O)c1c(=O)oc3c(OC)cccc3c12

absorption maximum (in ClC(Cl)Cl): 526 nm
SMILES: CC(C)(C)[Si](C)(C)C#Cc1c2c(=O)c3ccccc3c2c(C#C[Si](C)(C)C(C)(C)C)c2c(=O)c3ccccc3c12

SMILES: O=[N+]([O-])c1ccccc1O
absorption maximum (in CO): 338 nm
absorption maximum (in O): 411 nm

SMILES: CCCCCCCC(=O)Oc1ccc2c3cccc4c(OC(=O)CCCCCCC)ccc(c5cccc1c52)c43
absorption maximum (in C1CCOC1): 445 nm
absorption maximum (in Cc1ccccc1): 448 nm
absorption maximum (in ClC(Cl)(Cl)Cl): 448 nm
absorption maximum (in ClC(Cl)Cl): 446 nm
absorption maximum (in ClCCl): 445 nm
absorption maximum (in c1ccncc1): 449 nm

absorption maximum (in ClCCl): 351 nm
SMILES: CCOC(=O)c1c(-c2cc3cc(OC)ccc3oc2=O)nn(-c2cccc(C)c2)c1C(=O)OCC

absorption maximum (in ClCCl): 329 nm
SMILES: COc1ccc(-c2cccc3ncc(-c4ccc(C#N)cc4)n23)cc1

absorption maximum (in ClC(Cl)Cl): 626 nm
SMILES: F[B-]1(F)n2c(cc(Br)c2Br)C(c2ccccc2)=C2C=C(Br)C(c3ccc[nH]3)=[N+]21

absorption maximum (in C1CCOC1): 348 nm
SMILES: CCCCn1c2ccc(C#Cc3cccs3)cc2c2c1c1c3ccc(C#Cc4cccs4)cc3n(CCCC)c1c1c3ccc(C#Cc4cccs4)cc3n(CCCC)c21

SMILES: COc1cc2c3c4c(c5ccc(C(C)(C)C)cc5c5c(OC)c(OC)c(OC)c(c2c(OC)c1OC)c45)=[N+]1C3=Nc2c3c4cc(OC)c(OC)c(OC)c4c4c(OC)c(OC)c(OC)c5c6cc(C(C)(C)C)ccc6c(c3c54)n2[B-]1(F)F
absorption maximum (in Cc1ccccc1): 850 nm

absorption maximum (in O): 429 nm
SMILES: CCN(CC)c1ccc2c(c1)C(C)(C)C(=O)C=C2

absorption maximum (in CCCCCC): 338 nm
absorption maximum (in CO): 338 nm
absorption maximum (in ClCCl): 341 nm
SMILES: CCCCc1ccc2ccc3cccc4ccc1c2c34

absorption maximum (in ClCCl): 378 nm
SMILES: O=P1(c2ccccc2)c2cccc3c4ccccc4c4ccc1n4c23 (stereo not drawn)

absorption maximum (in ClC(Cl)Cl): 561 nm
SMILES: CCCCCCCCN1C(=O)c2ccc3c4c(-c5ccc(-n6c7ccccc7c7ccccc76)cc5)cc5c6c(ccc(c7c(-c8ccc(-n9c%10ccccc%10c%10ccccc%109)cc8)cc(c2c37)C1=O)c64)C(=O)N(CCCCCCCC)C5=O

SMILES: COc1ccc2c3c([nH]c2c1)C(C)=NCC3
absorption maximum (in CC#N): 328 nm
absorption maximum (in CS(C)=O): 330 nm
absorption maximum (in O): 372 nm

absorption maximum (in ClCCl): 353 nm
SMILES: CCn1c2ccccc2c2cccc(N(c3ccccc3)c3ccccc3)c21

absorption maximum (in ClCCl): 360 nm
SMILES: COc1cccc2cc(C)c3c4ccccc4[nH]c3c12

absorption maximum (in C1CCOC1): 385 nm
SMILES: c1cc2c3c(c1)-c1cccc4ccn(c14)B3n1ccc3cccc-2c31

absorption maximum (in CC#N): 309 nm
SMILES: CN(C)c1ccc(-n2c(-c3ccncc3)nc3nccnc32)cc1

absorption maximum (in CC1CCCCC1): 327 nm
absorption maximum (in CC#N): 312 nm
absorption maximum (in CO): 313 nm
SMILES: COC(=O)C(NC(=O)OC(C)(C)C)c1ccc2oc(-c3cc(OC)c(OC)c(OC)c3)nc2c1 (stereo not drawn)

absorption maximum (in CO): 260 nm
SMILES: COc1ccc(-c2nc(-c3cc([N+](=O)[O-])ccc3O)[nH]c2-c2ccc(OC)cc2)cc1

absorption maximum (in CC#N): 283 nm
absorption maximum (in CCO): 280 nm
absorption maximum (in CCOC(C)=O): 286 nm
absorption maximum (in CO): 278 nm
absorption maximum (in CS(C)=O): 285 nm
absorption maximum (in O): 269 nm
SMILES: Nc1cc[nH]c(=S)n1

absorption maximum (in ClCCl): 477 nm
SMILES: CCCCCCCCCCCCN1C(=O)c2c(c3ccc4cc(-c5ccc(N(C)C)cc5)c(OC)cc4c3c3c2ccc2cc(-c4ccc(N(C)C)cc4)c(OC)cc23)C1=O

absorption maximum (in ClCCl): 355 nm
SMILES: C(S/C=C/c1ccc(/C=C/SC=C2CCCCCCC2)cc1)=C1CCCCCCC1

absorption maximum (in ClCCl): 743 nm
SMILES: Cc1ccc([N+]2=c3c4n(c5ccccc35)[B-](F)(F)[N+](c3ccc(C)cc3)=c3c=4n(c4ccccc34)[B-]2(F)F)cc1

absorption maximum (in ClCCl): 450 nm
SMILES: CCCCN(CCCC)c1ccc2c#cc3cc4c#cc5ccc(C(F)(F)F)cc5c#cc#cc5cc(C(F)(F)F)ccc5c#cc4cc3c#cc3ccc(N(CCCC)CCCC)cc3c#cc#cc2c1

absorption maximum (in C1CCOC1): 382 nm
absorption maximum (in C1COCCO1): 382 nm
absorption maximum (in CC#N): 379 nm
absorption maximum (in CCO): 379 nm
absorption maximum (in ClCCl): 383 nm
SMILES: C(=C\c1ccc(N(c2ccccc2)c2ccccc2)cc1)/c1ccc(-c2cc(-c3ccccn3)nc(-c3ccccn3)c2)cc1

absorption maximum (in CO): 604 nm
absorption maximum (in ClC(Cl)Cl): 609 nm
SMILES: CCCCCCCCCCN1C(=O)c2cc(NCCCOCCO)c3c4c(cc(NCCCOCCO)c(c24)C1=O)C(=O)N(CCCCCCCCCC)C3=O

SMILES: CN(C)c1ccc(C2=Cc3cccc[n+]3[B-](F)(F)O2)cc1
absorption maximum (in C1CCOC1): 420 nm
absorption maximum (in C1COCCO1): 417 nm
absorption maximum (in CC1CCCCC1): 413 nm
absorption maximum (in CC#N): 417 nm
absorption maximum (in CCOC(C)=O): 416 nm
absorption maximum (in CCOCC): 413 nm
absorption maximum (in CN(C)C=O): 423 nm
absorption maximum (in CO): 418 nm
absorption maximum (in COC(C)=O): 417 nm
absorption maximum (in ClC(Cl)Cl): 426 nm

absorption maximum (in C1CCOC1): 301.5 nm
absorption maximum (in CC#N): 281.6 nm
absorption maximum (in CCCCCC): 286.9 nm
absorption maximum (in CCOC(C)=O): 286.1 nm
absorption maximum (in CN(C)C=O): 287.1 nm
absorption maximum (in CO): 282.1 nm
absorption maximum (in CS(C)=O): 283.5 nm
absorption maximum (in ClC(Cl)Cl): 288.3 nm
SMILES: Cc1ccc(NC(=O)c2sc(Br)nc2C)cc1

SMILES: c1ccc2c(c1)ccc1ccccc12
absorption maximum (in Cc1ccccc1): 295 nm

absorption maximum (in CC#N): 578 nm
absorption maximum (in CCCCCC): 581 nm
absorption maximum (in CCOC(C)=O): 580 nm
absorption maximum (in CO): 579 nm
absorption maximum (in ClCCl): 581 nm
SMILES: F[B-]1(F)n2c(NCc3ccccc3)ccc2C(c2c(Cl)cccc2Cl)=C2C=CC(NCc3ccccc3)=[N+]21

SMILES: CC(=O)c1ccc(/N=N/c2ccc(Nc3ccccc3)cc2)cc1
absorption maximum (in C1CCOC1): 438 nm
absorption maximum (in CC#N): 432 nm
absorption maximum (in CC(=O)O): 544 nm
absorption maximum (in CN(C)C=O): 452 nm
absorption maximum (in CO): 443 nm
absorption maximum (in CS(C)=O): 459 nm
absorption maximum (in Cc1ccccc1): 429 nm
absorption maximum (in ClC(Cl)Cl): 427 nm
absorption maximum (in ClCCl): 432 nm

absorption maximum (in ClCCl): 426 nm
SMILES: C[Si](C)(C)C#Cc1cc(C#C[Si](C)(C)C)c2ccc3c(C(=O)c4ccccc4)cc(C#C[Si](C)(C)C)c4ccc1c2c43

absorption maximum (in C1COCCO1): 374 nm
SMILES: CCC1=C(C2=C(C3=C(CC)S(=O)(=O)c4cc(-c5ccc(C)s5)ccc43)C(F)(F)C(F)(F)C2(F)F)c2ccc(-c3ccc(C)s3)cc2S1(=O)=O

SMILES: Cc1cc(C)c(-c2nnc(-c3ccc(-n4c5ccccc5c5ccccc54)cc3)o2)c(C)c1
absorption maximum (in Cc1ccccc1): 340 nm

SMILES: CCOc1cc2c(cc1/C=C/C(=C(C#N)C#N)c1ccccc1)c1ccccc1n2CC
absorption maximum (in C1CCOC1): 462 nm
absorption maximum (in CC#N): 462 nm
absorption maximum (in CCO): 468 nm
absorption maximum (in CCOC(C)=O): 458 nm
absorption maximum (in CN(C)C=O): 471 nm
absorption maximum (in CS(C)=O): 476 nm
absorption maximum (in Cc1ccccc1): 462 nm
absorption maximum (in ClC(Cl)Cl): 470 nm
absorption maximum (in ClCCl): 468 nm

absorption maximum (in ClCCl): 407 nm
SMILES: CCCCN(CCCC)c1ccc(C#Cc2cc(C#Cc3ccc(C(F)(F)F)cc3)c(C#Cc3ccc(C(F)(F)F)cc3)cc2C#Cc2ccc(N(CCCC)CCCC)cc2)cc1

absorption maximum (in ClC(Cl)Cl): 501 nm
SMILES: Cc1cccc(C)c1-c1cc2c(C)c3c4ccc5nc6c(ccc7c8c(C)c9cc(-c%10c(C)cccc%10C)c(-c%10c(C)cccc%10C)cc9c(C)c8c76)nc5c4c3c(C)c2cc1-c1c(C)cccc1C

absorption maximum (in CCO): 362 nm
SMILES: C#Cc1ccc2ccc3oc(=O)cc(C)c3c2c1

SMILES: COc1ccc(-c2cc(-c3ccc(OC)cc3)c3c(N)nc(N4CCCC4)c(C#N)c3n2)cc1
absorption maximum (in CC#N): 416 nm
absorption maximum (in CC(C)=O): 416 nm
absorption maximum (in CC(C)O): 412 nm
absorption maximum (in CO): 412 nm
absorption maximum (in ClC(Cl)Cl): 420 nm
absorption maximum (in ClCCl): 418 nm
absorption maximum (in c1ccccc1): 420 nm

absorption maximum (in C1CCCCC1): 300 nm
SMILES: C[Si](C)(C)c1ccc([Si](C)(C)C)c2ccccc12

absorption maximum (in CCCCCC): 344 nm
absorption maximum (in CO): 344 nm
absorption maximum (in ClCCl): 346 nm
SMILES: Cc1ccc2ccc3c(C)ccc4ccc1c2c43

absorption maximum (in O): 389 nm
SMILES: C[NH+](C)c1c2ccccc2cc2ccccc12

absorption maximum (in ClCCl): 443 nm
SMILES: COCCOCCOCCOCC(COCCOCCOCCOC)Oc1cc(/C=C/c2ccc(/C=C(\C#N)c3ccccn3)cc2)c(OC(COCCOCCOCCOC)COCCOCCOCCOC)cc1/C=C/c1ccc(/C=C(\C#N)c2ccccn2)cc1

absorption maximum (in CC#N): 330 nm
SMILES: c1ccc(-c2pc3ccccc3s2)cc1 (stereo not drawn)

absorption maximum (in CCO): 424 nm
absorption maximum (in ClCCl): 430 nm
SMILES: CCN(CC)c1ccc2cc(C#N)/c(=N\C(=O)c3ccco3)oc2c1

absorption maximum (in C1CCOC1): 359 nm
absorption maximum (in C1COCCO1): 359 nm
absorption maximum (in CC#N): 358 nm
absorption maximum (in CC(C)O): 357 nm
absorption maximum (in CCO): 357 nm
absorption maximum (in CCOC(C)=O): 357 nm
absorption maximum (in CN(C)C=O): 361 nm
absorption maximum (in CO): 357 nm
absorption maximum (in CS(C)=O): 364 nm
absorption maximum (in O): 359 nm
SMILES: NS(=O)(=O)c1ccc(N2N=C(c3ccc(O)cc3)CC2c2ccccc2)cc1 (stereo not drawn)

absorption maximum (in ClC(Cl)Cl): 675 nm
SMILES: CN1C(=CC2=C([O-])C(=CC3=[N+](C)c4ccccc4C3(C)C)C2=C2C(=O)c3ccccc3C2=O)C(C)(C)c2ccccc21

absorption maximum (in ClCCl): 280 nm
SMILES: CN(C)c1ccc(-c2cc(-c3ccccc3)nn2C)cc1

SMILES: Cc1ccc2c(c1)C1(c3ccccc3Oc3ccccc31)c1cc(C)ccc1N2c1ccc(-c2nc(-c3ccccc3)cc(-c3ccccc3)n2)cc1
absorption maximum (in Cc1ccccc1): 378 nm
